Data as given in publication PMC5916032 (Journal of molecular biology, 2018).

Target: fascin 1 (Homo sapiens, UniProt Q16658)
Test: X-ray co-crystal structure
Type: biochemical

IC50: ~180 nM
SMILES: Cc1cnoc1C(=O)Nc1nn(Cc2ccc(C(F)(F)F)cc2)c2ccccc12 [NP-G2-029, 4-methyl-N-(1-(4-(trifluoromethyl)benzyl)-1H-indazol-3-yl)isoxazole-5-carboxamide]
